Like-named read-outs stand apart in the source and are kept apart here.
Assays:
MraY from S. aureus [1] = molecular target: T1, MraY from S. aureus (Staphylococcus aureus, UniProt Q2FZ93); design: method as in PMID 29438582; details: reference compound in Table 1; same value as given in b6; read-out: IC50, in vitro inhibitory activity against MraY from S. aureus; cited from earlier work
T1 construct: made in house; host or cells: E. coli Lemo21

E. coli = test: Antibacterial activity (MIC) against E. coli; assay type: cell-based; details: Escherichia coli, not active
Procedure: Muraymycin analogues 10–17 were also studied for their antibacterial activities against E. coli, but were not active (MIC > 50 μg/mL).

MraY from S. aureus [2] = molecular target: T1, MraY from S. aureus; test: Fluorescence-based in vitro MraY inhibition assay (dansylated Park's nucleotide, crude membrane preparation); assay type: biochemical; details: for IC50: crude membrane preparation of MraY heterologously overexpressed in E. coli, triplicates, mean ± standard deviation, read-out: IC50, in vitro inhibitory activity against MraY from S. aureus; for fold weaker MraY inhibition than (6′S)-counterpart: (6′R)-derivatives 12 and 13 vs. 10 and 11, respectively
Procedure: Target compounds 10–17 were tested in vitro for their inhibitory potency towards the bacterial target enzyme MraY. Therefore, a previously reported fluorescence-based assay was employed, using dansylated Park’s nucleotide and MraY from S. aureus (recombinantly overexpressed in E. coli).
The overexpression of MraY was performed as described before. A plasmid containing the mraY gene was transformed into E. coli Lemo21 cells, which were plated on lysogeny broth (LB) agar containing kanamycin (50 μg/mL) and chloramphenicol (30 μg/mL). A single colony was picked to induce an overnight culture (10 mL) of LB media containing kanamycin (50 μg/mL) and chloramphenicol (30 μg/mL), which was incubated at 37 °C and 180 rpm for 16 h. A culture of LB media (500 mL) containing kanamycin (50 μg/mL), chloramphenicol (30 μg/mL), and L-rhamnose (1 mM) was inoculated with the overnight culture (500 μL) and then grown at 37 °C and 180 rpm to OD600 0.6. Subsequently, MraY expression was induced with IPTG (1 mM) and the culture was incubated at 37 °C and 180 rpm for 4 h. Cells were then centrifuged and the pellet was resuspended in buffer A (50 mM Tris-HCl buffer pH 7.5, 1 mM MgCl2, 2 mM β-mercaptoethanol, 15 mL overall). Egg white lysozyme (spatula tip), DNAse I (spatula tip), and cOmplete^TM EDTA-free protease inhibitor cocktail (one tablet) were added. Cells were lysed using sonication and then incubated at 4 °C for 30 min. The lysate was centrifuged and the supernatant was centrifuged again. The resultant pellet was resuspended in buffer A (1.7 mL), flash frozen in liquid nitrogen and stored at −80 °C (aliquots of 20 μL). This MraY-containing crude membrane preparation (overall protein concentration ~20.5 mg/mL as determined by OD280) was diluted with water (final overall protein concentration 1 mg/mL) and then directly used for MraY activity assays without further purification.
The assay was performed as described before. The crude membrane preparation of MraY from S. aureus (1 μL, vide supra) was added to a mixture of undecaprenyl phosphate (50 μM), dansylated Park′s nucleotide (7.5 μM), and the tested compound (at varying concentrations) in buffer (100 mM Tris-HCl buffer pH 7.5, 200 mM KCl, 10 mM MgCl2, 0.1% Triton X-100, 20 μL overall). Fluorescence of the assay mixtures over time was monitored at λex = 355 nm and λem = 520 nm (plate reader, 384-well plate format). MraY activity at a certain inhibitor concentration was determined using linear regression from 0 to 2 min. This measure of activity was plotted against logarithmic inhibitor concentrations and fitted using a sigmoidal fit. This procedure furnished IC50 values with standard deviations.

T1 sequence (Q2FZ93 whole entry): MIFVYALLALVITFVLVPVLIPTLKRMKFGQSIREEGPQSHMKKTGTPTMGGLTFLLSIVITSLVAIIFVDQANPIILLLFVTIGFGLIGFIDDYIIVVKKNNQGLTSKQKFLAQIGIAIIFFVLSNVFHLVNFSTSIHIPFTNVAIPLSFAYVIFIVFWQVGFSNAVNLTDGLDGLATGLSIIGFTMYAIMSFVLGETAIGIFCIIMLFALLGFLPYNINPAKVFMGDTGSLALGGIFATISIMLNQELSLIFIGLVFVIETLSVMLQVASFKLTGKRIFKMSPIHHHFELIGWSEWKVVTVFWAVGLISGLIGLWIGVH

Row | Compound | IC50 (MraY from S. aureus [1]) | MIC (E. coli) | fold loss in inhibitory potency (MraY) vs. 9 (MraY from S. aureus [2]; compounds 10 vs. 9, epicapreomycidine replaced by L-lysine, nonhydroxylated L-leucine) | IC50 (MraY from S. aureus [2]) | fold weaker MraY inhibition than (6′S)-counterpart (MraY from S. aureus [2]) | fold more active (MraY) than D-leucine epimer 17 (MraY from S. aureus [2]; 16 vs. 17)
1 | CC(C)[C@H](NC(=O)N[C@H](C(=O)N[C@H](C(=O)NCCCN[C@@H](C[C@H]1O[C@@H](n2ccc(=O)[nH]c2=O)[C@H](O)[C@@H]1O)C(=O)O)[C@@H](O)C(C)C)[C@@H]1CCNC(=N)N1)C(=O)O [Compound 9] | 0.095 ± 0.019 µM |  |  |  |  | 
2 | CC(C)C[C@H](NC(=O)[C@H](CCCCN)NC(=O)N[C@H](C(=O)O)C(C)C)C(=O)NCCCN[C@@H](C[C@H]1O[C@@H](n2ccc(=O)[nH]c2=O)[C@H](O)[C@@H]1O)C(=O)O [Compound 10, 5′-deoxy-L-Leu muraymycin analogue] |  | > 50 µg/mL | ~ 26 fold | 2.5 ± 0.6 µM |  | 
3 | CC(C)C[C@@H](NC(=O)[C@H](CCCCN)NC(=O)N[C@H](C(=O)O)C(C)C)C(=O)NCCCN[C@@H](C[C@H]1O[C@@H](n2ccc(=O)[nH]c2=O)[C@H](O)[C@@H]1O)C(=O)O [Compound 11, 5′-deoxy-D-Leu muraymycin analogue] |  | > 50 µg/mL |  | 2 ± 0.6 µM |  | 
4 | CC(C)C[C@H](NC(=O)[C@H](CCCCN)NC(=O)N[C@H](C(=O)O)C(C)C)C(=O)NCCCN[C@H](C[C@H]1O[C@@H](n2ccc(=O)[nH]c2=O)[C@H](O)[C@@H]1O)C(=O)O [Compound 12, 5′-deoxy-6′-epi-L-Leu muraymycin analogue] |  | > 50 µg/mL |  | 38 ± 6 µM | 15 fold | 
5 | CC(C)C[C@@H](NC(=O)[C@H](CCCCN)NC(=O)N[C@H](C(=O)O)C(C)C)C(=O)NCCCN[C@H](C[C@H]1O[C@@H](n2ccc(=O)[nH]c2=O)[C@H](O)[C@@H]1O)C(=O)O [Compound 13, 5′-deoxy-6′-epi-D-Leu muraymycin analogue] |  | > 50 µg/mL |  | 24 ± 9 µM | 12 fold | 
6 | CC(C)C[C@H](NC(=O)[C@H](CCCCN)NC(=O)N[C@H](C(=O)O)C(C)C)C(=O)NCCCN[C@@H](C(=O)O)[C@H](O)[C@H]1O[C@@H](n2ccc(=O)[nH]c2=O)[C@H](O)[C@@H]1O [Compound 14, 6′-epi-L-Leu muraymycin analogue] |  | > 50 µg/mL |  | 10 ± 4 µM |  | 
7 | CC(C)C[C@@H](NC(=O)[C@H](CCCCN)NC(=O)N[C@H](C(=O)O)C(C)C)C(=O)NCCCN[C@@H](C(=O)O)[C@H](O)[C@H]1O[C@@H](n2ccc(=O)[nH]c2=O)[C@H](O)[C@@H]1O [Compound 15, 6′-epi-D-Leu muraymycin analogue] |  | > 50 µg/mL |  | 10 ± 2 µM |  | 
8 | CC(C)C[C@H](NC(=O)[C@H](CCCCN)NC(=O)N[C@H](C(=O)O)C(C)C)C(=O)NCCCN[C@H](C(=O)O)[C@@H](O)[C@H]1O[C@@H](n2ccc(=O)[nH]c2=O)[C@H](O)[C@@H]1O [Compound 16, 5′-epi-L-Leu muraymycin analogue] |  | > 50 µg/mL |  | 6.2 ± 2.8 µM |  | ~ 3 fold
9 | CC(C)C[C@@H](NC(=O)[C@H](CCCCN)NC(=O)N[C@H](C(=O)O)C(C)C)C(=O)NCCCN[C@H](C(=O)O)[C@@H](O)[C@H]1O[C@@H](n2ccc(=O)[nH]c2=O)[C@H](O)[C@@H]1O [Compound 17, 5′-epi-D-Leu muraymycin analogue] |  | > 50 µg/mL |  | 21 ± 4 µM |  | 

From article PMC6278576, “Analogues of Muraymycin Nucleoside Antibiotics with Epimeric Uridine-Derived Core Structures” (Molecules, 2018)
